The compounds below were run on carrageenan-induced male rat prostate disease model (assay: Carrageenan-induced male rat prostate disease model: representative RIP1, RIP3 and MLKL inhibitors). Details: list after the methods of the example; protocols based on RIPA-56.
Assay type: in vivo
Description: Experimental protocols for the compounds of Table 1 were based on those used for RIPA-56. Each inhibitor was intraperitoneally or orally administrated to rat before carrageenan treatment, at the dose of 20 mg/kg to 100 mg/kg.
Each inhibitor was intraperitoneally or orally administrated to rat before carrageenan treatment, at the dose of 20 mg/kg to 100 mg/kg.
All the SD rats were randomly divided into different groups (n=8-10): control group, model group, and compounds-treated groups. For injection of carrageenan or saline, rats were anesthetized with 4% chloral hydrate and were fixed in a supine position. […] A small midline incision was made in the sterile area, then the bladder and the prostate carefully exposed. With a 30-gauge needle, 50 ul sterile suspension of 3% carrageenan (Sigma, MO, USA) or saline (sham group) was injected into both right and left ventral lobes of the prostate gland. […] While an equal amount of solvents were intraperitoneally and orally injected to control rats.
CCC(C)(C)C(=O)N(O)Cc1cc(F)cc(F)c1F [N-Hydroxy-2,2-dimethyl-N-(2,3,5-trifluorobenzyl)butanamide] was tested, and the “listed under heading Active RIP1 Inhibitors” value was “Active”. With CC(=O)N1CCC(C(=O)N2N=CC[C@H]2c2ccccc2)CC1 [(S)-1-(4-(5-phenyl-4,5-dihydro-1H-pyrazole-1-carbonyl)piperidin-1-yl)ethanone] the “listed under heading Active RIP1 Inhibitors” value was “Active”. O=C1CCCc2ccc(Br)cc2N1 [8-bromo-4,5-dihydro-1H-benzo[b]azepin-2(3H)-one] was tested, and the “listed under heading Active RIP1 Inhibitors” value was “Active”. In the case of COc1nccnc1NS(=O)(=O)c1ccc(NC(=O)/C=C/c2ccc([N+](=O)[O-])s2)cc1 [Necrosulfonamide, (2E)-N-[4-[[(3-Methoxy-2-pyrazinyl)amino]sulfonyl]phenyl]-3-(5-nitro-2-thienyl)-2-propenamide], the “listed under heading Active MLKL Inhibitors” value is reported as “Active”. In the case of CNC(=O)c1ccc2c(c1)ncn2-c1ccc(CC(=O)OC(C)(C)C)cc1 [GSK'840, tert-butyl 2-(4-(5-(methylcarbamoyl)-1H-benzo[d]imidazol-1-yl)phenyl)acetate], the “listed under heading Active RIP3 Inhibitors” value is reported as “Active”. With Nc1ncnc2occ(-c3ccc(NC(=O)Nc4cc(C(F)(F)F)ccc4F)cc3)c12 [Cpd27, 1-(4-(4-aminofuro[2,3-d]pyrimidin-5-yl)phenyl)-3-(2-fluoro-5-(trifluoromethyl)phenyl)urea] the “listed under heading Active RIP1 Inhibitors” value was “Active”. With CCC(C)(C)C(=O)N(O)Cc1cc(F)c(F)c(F)c1 [N-Hydroxy-2,2-dimethyl-N-(3,4,5-trifluorobenzyl)butanamide] the “listed under heading Active RIP1 Inhibitors” value was “Active”. O=C(NCc1c(F)ccc(Cl)c1F)c1snnc1C1CC1 [N-(3-chloro-2,6-difluorobenzyl)-4-cyclopropyl-1,2,3-thiadiazole-5-carboxamide] was tested, and the “listed under heading Active RIP1 Inhibitors” value was “Active”. In the case of O=C(c1ccccc1)N1N=CC[C@H]1c1ccccc1 [(S)-phenyl(5-phenyl-4,5-dihydro-1H-pyrazol-1-yl)methanone], the “listed under heading Active RIP1 Inhibitors” value is reported as “Active”. For Cc1ccc(CCCCN2C(=O)N[C@H](Cc3c[nH]c4c(Cl)cccc34)C2=O)cc1C#Cc1cnc2cccnn12 [Ponatinib-Nec1s, (R)-5-((7-chloro-1H-indol-3-yl)methyl)-3-(4-(3-(imidazo[1,2-b]pyridazin-3-ylethynyl)-4-methylphenyl)butyl)imidazolidine-2,4-dione], the “listed under heading Active RIP1 Inhibitors” value was “Active”. In the case of CN(c1ccc(NC(=O)Nc2ccc(OC(F)(F)F)cc2)cc1)c1ccnc(Nc2cccc(S(N)(=O)=O)c2)n1 [Compound 1, 3-((4-(methyl(4-(3-(4-(trifluoromethoxy)phenyl)ureido)phenyl)amino)pyrimidin-2-yl)amino)benzenesulfonamide], the “listed under heading Active MLKL Inhibitors” value is reported as “Active”. In the case of CCC(C)(C)C(=O)N(O)Cc1ccc(F)cc1F [N-(2,4-Difluorobenzyl)-N-hydroxy-2,2-dimethylbutanamide], the “listed under heading Active RIP1 Inhibitors” value is reported as “Active”. With Cn1c(=O)c2c(nc(S(=O)(=O)CC3CC3)n2C)n(CC#Cc2cccc(Cl)c2)c1=O [TC13-119, 3-(3-(3-chlorophenyl)prop-2-yn-1-yl)-8-((cyclopropylmethyl)sulfonyl)-1,7-dimethyl-3,7-dihydro-1H-purine-2,6-dione] the “listed under heading Active MLKL Inhibitors” value was “Active”. In the case of CN1C(=O)C(Cc2c[nH]c3ccccc23)NC1=S (stereo not drawn) [Nec-1, 5-((1H-indol-3-yl)methyl)-3-methyl-2-thioxoimidazolidin-4-one], the “listed under heading Active RIP1 Inhibitors” value is reported as “Active”. For CCn1c(S(C)(=O)=O)nc2c1c(=O)n(C)c(=O)n2C [TC13-74, 7-ethyl-1,3-dimethyl-8-(methylsulfonyl)-1H-purine-2,6(3H,7H)-dione], the “listed under heading Active MLKL Inhibitors” value was “Active”. With C#CC(C)(C)C(=O)N1CC[C@H]1c1ccccc1 [(S)-2,2-dimethyl-1-(2-phenylazetidin-1-yl)but-3-yn-1-one] the “listed under heading Active RIP1 Inhibitors” value was “Active”. In the case of CN1C(=O)[C@@H](NC(=O)c2nnc(Cc3ccccc3)[nH]2)COc2ccccc21 [(S)-5-benzyl-N-(5-methyl-4-oxo-2,3,4,5-tetrahydrobenzo[b][1,4]oxazepin-3-yl)-4H-1,2,4-triazole-3-carboxamide], the “listed under heading Active RIP1 Inhibitors” value is reported as “Active”. With C#CCn1c(=O)n(C)c(=O)c2c1nc(S(C)(=O)=O)n2C [TC13-106, 1,7-dimethyl-8-(methylsulfonyl)-3-(prop-2-ynyl)-1H-purine-2,6(3H,7H)-dione] the “listed under heading Active MLKL Inhibitors” value was “Active”. CCC(C)(C)C(=O)N1C(=O)C[C@H]1c1ccccc1 [(S)-1-(2,2-dimethylbutanoyl)-4-phenylazetidin-2-one] was tested, and the “listed under heading Active RIP1 Inhibitors” value was “Active”. CCC(C)(C)C(=O)N(O)Cc1ccc(F)c(F)c1F [N-Hydroxy-2,2-dimethyl-N-(2,3,4-trifluorobenzyl)butanamide] was tested, and the “listed under heading Active RIP1 Inhibitors” value was “Active”. With CCC(C)(C)C(=O)N(O)Cc1ccc(F)cc1 [N-(4-Fluorobenzyl)-N-hydroxy-2,2-dimethylbutanamide] the “listed under heading Active RIP1 Inhibitors” value was “Active”. For CC(C)(C)C(=O)N1N=CC[C@H]1c1ccccn1 [(S)-2,2-dimethyl-1-(5-(pyridin-2-yl)-4,5-dihydro-1H-pyrazol-1-yl)propan-1-one], the “listed under heading Active RIP1 Inhibitors” value was “Active”. Cc1cc(-c2cnc(N)c3c(-c4ccc5scnc5c4)csc23)n(C)n1 [GSK'843, 3-(benzo[d]thiazol-5-yl)-7-(1,3-dimethyl-1H-pyrazol-5-yl)thieno[3,2-c]pyridin-4-amine] was tested, and the “listed under heading Active RIP3 Inhibitors” value was “Active”. CCC(C)(C)C(=O)N(O)Cc1ccccc1 [N-Benzyl-N-hydroxy-2,2-dimethylbutanamide] was tested, and the “listed under heading Active RIP1 Inhibitors” value was “Active”. With Cc1cccc2c(CC3NC(=O)N(C)C3=O)c[nH]c12 (stereo not drawn) [3-methyl-5-((7-methyl-1H-indol-3-yl)methyl)imidazolidine-2,4-dione] the “listed under heading Active RIP1 Inhibitors” value was “Active”. With CN1C(=O)[C@@H](NC(=O)c2cc(Cc3ccccc3)on2)COc2ccc(-c3nnn[nH]3)cc21 [(S)-5-benzyl-N-(5-methyl-4-oxo-7-(1H-tetrazol-5-yl)-2,3,4,5-tetrahydrobenzo[b][1,4]oxazepin-3-yl)isoxazole-3-carboxamide] the “listed under heading Active RIP1 Inhibitors” value was “Active”. In the case of O=C(N1CCCC1c1cccc(F)c1)C1(C(F)(F)F)CCC1 (stereo not drawn) [(2-(3-fluorophenyl)pyrrolidin-1-yl)(1-(trifluoromethyl)cyclobutyl)methanone], the “listed under heading Active RIP1 Inhibitors” value is reported as “Active”. Cn1c(=O)c2c(nc(S(C)(=O)=O)n2C)n(CC#Cc2cccc(O)c2)c1=O [TC13-172, 3-(3-(3-hydroxyphenyl)prop-2-yn-1-yl)-1,7-dimethyl-8-(methylsulfonyl)-3,7-dihydro-1H-purine-2,6-dione] was tested, and the “listed under heading Active MLKL Inhibitors” value was “Active”. With CNc1cc(C#CCn2c(=O)n(C)c(=O)c3c2nc(S(=O)(=O)Cc2cc(OC)ccc2OC)n3C)ccn1 [TC13-127, 8-((2,5-dimethoxybenzyl)sulfonyl)-1,7-dimethyl-3-(3-(2-(methylamino)pyridin-4-yl)prop-2-yn-1-yl)-3,7-dihydro-1H-purine-2,6-dione] the “listed under heading Active MLKL Inhibitors” value was “Active”. In the case of CN1C(=O)[C@@H](NC(=O)c2cc(Cc3ccccc3)on2)COc2ccccc21 [GSK481, (S)-5-benzyl-N-(5-methyl-4-oxo-2,3,4,5-tetrahydrobenzo[b][1,4]oxazepin-3-yl)isoxazole-3-carboxamide], the “listed under heading Active RIP1 Inhibitors” value is reported as “Active”. In the case of COc1ccc(OC)c(CS(=O)(=O)c2nc3c(c(=O)n(C)c(=O)n3C)n2C)c1 [TC13-58, (2,5-dimethoxybenzylsulfonyl)-1,3,7-trimethyl-1H-purine-2,6(3H,7H)-dione], the “listed under heading Active MLKL Inhibitors” value is reported as “Active”. C[C@H](NC(=O)c1snnc1C1CC1)c1c(F)cccc1Cl [(S)—N-(1-(2-chloro-6-fluorophenyl)ethyl)-4-cyclopropyl-1,2,3-thiadiazole-5-carboxamide] was tested, and the “listed under heading Active RIP1 Inhibitors” value was “Active”. In the case of CC(C)S(=O)(=O)c1ccc2nccc(Nc3ccc4scnc4c3)c2c1 [GSK'872, N-(6-(isopropylsulfonyl)quinolin-4-yl)benzo[d]thiazol-5-amine], the “listed under heading Active RIP3 Inhibitors” value is reported as “Active”. For CC(C)(C)c1nc(-c2cccc(NS(=O)(=O)c3c(F)cccc3F)c2F)c(-c2ccnc(N)n2)s1 [Dabrafenib, N-[3-[5-(2-amino-4-pyrimidinyl)-2-(1,1-dimethylethyl)-4-thiazolyl]-2-fluorophenyl]-2,6-difluoro-benzenesulfonamide], the “listed under heading Active RIP3 Inhibitors” value was “Active”. In the case of CC(=O)N1CCC(C(=O)N2N=CC[C@H]2c2cc(F)cc(F)c2)CC1 [(S)-1-(4-(5-(3,5-difluorophenyl)-4,5-dihydro-1H-pyrazole-1-carbonyl)piperidin-1-yl)ethanone], the “listed under heading Active RIP1 Inhibitors” value is reported as “Active”. With CN1C(=O)N[C@H](Cc2c[nH]c3c(Cl)cccc23)C1=O [(R)-5-((7-chloro-1H-indol-3-yl)methyl)-3-methylimidazolidine-2,4-dione] the “listed under heading Active RIP1 Inhibitors” value was “Active”. Cn1c(=O)c2c(nc(S(C)(=O)=O)n2C)n(C)c1=O [TC13-4, 1,3,7-trimethyl-8-(methylsulfonyl)-1H-purine-2,6(3H,7H)-dione] was tested, and the “listed under heading Active MLKL Inhibitors” value was “Active”. CN1C(=O)[C@@H](NC(=O)c2n[nH]c(Cc3ccccc3)n2)COc2ccccc21 [GSK2982772, (S)-5-benzyl-N-(5-methyl-4-oxo-2,3,4,5-tetrahydrobenzo[b]-[1,4]oxazepin-3-yl)-1H-1,2,4-triazole-3-carboxamide] was tested, and the “listed under heading Active RIP1 Inhibitors” value was “Active”. Cn1c(=O)c2c(nc(S(C)(=O)=O)n2C)n(CC#N)c1=O [TC13-107, 2-(1,7-dimethyl-8-(methylsulfonyl)-2,6-dioxo-1H-purin-3(2H,6H,7H)-yl)acetonitrile] was tested, and the “listed under heading Active MLKL Inhibitors” value was “Active”.

Source: patent publication US20220288077A1, “PROSTATITIS TREATMENT” (NATIONAL INSTITUTE OF BIOLOGICAL SCIENCES, priority 2019, published 2022)
